Results from patent US20230026808A1, “COMPOUNDS, COMPOSITIONS, AND METHODS FOR TREATING ISCHEMIA-REPERFUSION INJURY AND/OR LUNG INJURY” (YALE UNIVERSITY, priority 2019, published 2023).
“Also recorded” adds a separate entry of the source. Marks after values point to notes of the source that are not given here.

Legend:
p38 phosphorylation = p38 phosphorylation in mouse neutrophils; format: cell-based
Protocol: (§1) Mouse bone marrow neutrophils were isolated from long bones. After lysis of red blood cells (RBCs) with ACK buffer (155 mM NH4Cl, 10 mM KHCO3 and 127 μM EDTA), bone marrow cells were separated on a discontinuous Percoll gradient composed of 81%, 62%, and 45% Percoll. Neutrophils were collected at the interphase between 81% and 62% Percoll, washed in HBSS, and used for assays.

ERK phosphorylation = ERK phosphorylation in mouse neutrophils; format: cell-based
Protocol: as §1

MAP3K3 = experiment: Western analysis of MAP3K3 protein content induced by fMLP in neutrophils; format: cell-based; conditions: mouse neutrophils
Protocol: as §1

[1] = Clinical pharmacokinetics of pazopanib; format: in vivo; conditions: human, IV 20 mg/subject, extrapolated
human neutrophils = experiment: ROS production assay in human neutrophils; format: cell-based; conditions: 100 nM fMLP
Protocol: (§2) For measurement of extracellular ROS release, isolated neutrophils were placed in the reaction buffer (0.25% BSA in HBSS with Ca^2+ and Mg^2+, 10 mM Isoluminol, 100 u/ml HRP) and stimulated with fMLP or PMA. For measurement of total ROS production, neutrophils were incubated with the reaction buffer (0.25% BSA in HBSS with Ca^2+ and Mg^2+, 10 mM Luminol, 100 u/ml HRP), followed with stimulations. Chemiluminescence was read continuously in a plate reader (Perkin Elmer). For reconstituted ROS production system in COS-7 cells, PMA (2 μM) was used for stimulation.
Buffy coat of human blood samples were subjected to neutrophil enrichment using the EasySep Human Neutrophil Enrichment Kit (Stemceli Technologies) according to manufacturer's protocol. Briefly, the depletion antibody cocktail was mixed with the buffy coat followed by incubation with magnetic particles. The EasySep Magnet was then used to immobilize unwanted cells as the label-free neutrophils were poured into another conical tube. Enriched neutrophils were pelleted and resuspended in an assay buffer (Hanks buffer with Ca^2+ and Mg^2+, 0.25% BSA) for ROS production assay or Western analysis.

[2] = IV toxicology and toxicokinetic studies in rats; conditions: for safety margin based on Cmax: vs Cmax 3.4 μg/mL in man (20 mg IV)
[3] = tested on: brain ischemia-reperfusion injury (IRI); experiment: Intraluminal middle cerebral artery (MCA) occlusion brain stroke mouse model; format: in vivo
mouse neutrophils = experiment: ROS release assay in mouse neutrophils; format: cell-based; conditions: fMLP (1 μM)
Protocol: as §1, §2

HCl-induced ALI = experiment: Acid aspiration (HCl)-induced acute lung injury mouse model; format: in vivo; conditions: for BAL cytokine contents / myeloid cell (neutrophil) infiltration in BAL and lungs: injured lungs; for phosphorylated AKT levels in lung extracts: lungs subjected to ALI, AKT S473; for effect on survival: mice lacking p47^phox in hematopoietic cells
Protocol: Mice were anaesthetized by ketamine/Xylazine ([…] and 100 mg/kg) and were secured vertically from their incisors on a custom-made mount for orotracheal instillation. A 22G catheter (Jelco, Smiths Medical) was guided 1.5 cm below the vocal cords, and 2.5 μl/g of 0.05 M HCl was instilled. Four hours after the induction of injury, 100 μl of FITC-labeled albumin (10 mg/ml) was injected via retro-orbital vein. Mice were euthanized for sample collection 6 hours after the induction of injury. For the baseline permeability measurement, saline without HCl was administered the same way. The baseline permeability measurement was subtracted in the data presented.
In survival experiments, mice received 2.5 μl/g of 0.1 M HCl orotracheally and the observation period was extended up to 30 h.
Acute lung injury indices were quantified using HE-stained lung sections. The quantification of perivascular interstitial edema was done as the ratios of perivascular interstitial edema areas to vessel areas. More than 8 sections from the same lobes of the lungs were quantified for each mouse.
Fifteen min after HCl ALI-induction, BALs were collected from the lungs. Mouse lungs were then mechanically dissociated and filtered through a 40 μm mesh to generate a single-cell suspension, and red blood cells were lysed. BAL cells, which were pelleted and resuspended, and whole lung cells were labeled for 30 minutes at 37° C. with 1 μM CM-H2-DCFDA (C6827, Invitrogen). The cells were then labeled for the surface markers (CD45; BD Bioscience 564279; Ly-6G; BD Bioscience 560602). Flow cytometry was performed on a BD LSRII.

[4] = rat, 5 days, IV 20 minute infusion
[5] = drug given during ischemic phase
[6] = given i.v. 0.5 hrs after reperfusion
[7] = HCl model, therapeutic modality, intranasally post injury induction

Cc1ccc(Nc2nccc(N(C)c3ccc4c(C)n(C)nc4c3)n2)cc1S(N)(=O)=O [pazopanib, 5-((4-((2,3-dimethyl-2H-indazol-6-yl)(methyl)amino)pyrimidin-2-yl)amino)-2-methylbenzenesulfonamide]
p38 phosphorylation (p38 phosphorylation): did not affect | ERK phosphorylation (ERK phosphorylation): did not affect | increase in MAP3K3 protein content induced by fMLP (MAP3K3): abrogated the increase in MAP3K3 protein content | AUC(0-∞), assuming dose-linearity [1]: 81.6^a μg·h/mL | Cmax, assuming dose-linearity [1]: 3.4^a μg/mL | AUC(0-inf) ([1]; in vivo, read-out: AUC(0-∞), assuming dose-linearity): 81600 ng·h/mL | Cmax ([1]; in vivo, read-out: Cmax, assuming dose-linearity): 3400 ng/mL | ROS production (human neutrophils): increases ROS production | Margin of safety ([2]; 2-week rat study vs 20 mg clinical starting dose): 5.6 fold | safety margin based on Cmax ([2]; female rats): 16.2 fold | safety margin based on Cmax ([2]; male rats): 13.8 fold | HED for 70 kg human ([2]; rat, 2-week study): 112 mg | HED of NOAEL [2, 4]: 8 mg/kg | NOAEL [2, 4]: 50 mg/kg | Margin of safety ([2]; rat, 5 days, IV 20 minute infusion, clinical dose 20 mg/day or 0.29 mg/kg): 27.6X | Margin of safety ([2]; rat, 14 days, IV 20 minute infusion, clinical dose 20 mg/day or 0.29 mg/kg): 5.6X | t1/2 ([2]; rat, in vivo): a few hours | HED of NOAEL ([2]; rat, single dose, IV bolus): 4.8 mg/kg | Margin of safety ([2]; rat, single dose, IV bolus, clinical dose 20 mg/day or 0.29 mg/kg): 16.6X | brain IRI ([3]; 60 μg retro-orbital intravenous injection 30 min after reperfusion): reduces brain IRI | brain IRI ([3]; 60 μg retro-orbital intravenous injection immediately after reperfusion): fails to reduce brain IRI | infarct size of the brain [3, 5]: no improvement | neurological score [3, 5]: no improvement | infarct size [3, 6]: less infarct size | neurological deficit score [3, 6]: improved neurological deficit score | ROS production (mouse neutrophils; WT mouse neutrophils): increases in ROS production | ROS production (mouse neutrophils; WT mouse neutrophils, listed as Pazopanib): increases ROS release | ROS production (mouse neutrophils; p47^phox-KI neutrophils, 20 nM pazopanib): failed to elevate ROS production | mortality (HCl-induced ALI; HCl model, prophylactic, intranasally prior to injury): reduced | mortality (HCl-induced ALI; [7]): significant reductions; also recorded: reduces mortality | perivascular interstitial edema (HCl-induced ALI; [7]): significant reductions | BAL cytokine contents (HCl-induced ALI): did not affect | myeloid cell (neutrophil) infiltration in BAL and lungs (HCl-induced ALI): did not affect | BAL cytokine contents (HCl-induced ALI; listed as Pazopanib): no significant effects | myeloid cell (neutrophil) infiltration in BAL and lungs (HCl-induced ALI; listed as Pazopanib): no significant effects | phosphorylated AKT levels in lung extracts (HCl-induced ALI): increases in phosphorylated AKT levels | phosphorylated AKT levels in lung extracts (HCl-induced ALI; listed as Pazopanib): increases phosphorylation of AKT at S473 | effect on survival (HCl-induced ALI): abrogated the effects of pazopanib | effect on survival (HCl-induced ALI; listed as Pazopanib): failed to increase survival | ROS in neutrophils in BALs and lungs (HCl-induced ALI; pazopanib-treated mice subjected to HCl lung insult, DCFDA): elevated ROS
